This note sets out measurements from patent US20240299373A1, “IMPROVED USE OF TRADIPITANT IN MOTION SICKNESS” (Vanda Pharmaceuticals Inc., priority 2023, published 2024).

Where “and” joins values, the source holds several entries; their conditions need not be identical. Identical values can stand only once. Marks after values point to notes of the source that are not given here.

One data set concerns the target T1, NK-2 receptor (Homo sapiens, UniProt P21452).
T1 sequence (P21452 1-398): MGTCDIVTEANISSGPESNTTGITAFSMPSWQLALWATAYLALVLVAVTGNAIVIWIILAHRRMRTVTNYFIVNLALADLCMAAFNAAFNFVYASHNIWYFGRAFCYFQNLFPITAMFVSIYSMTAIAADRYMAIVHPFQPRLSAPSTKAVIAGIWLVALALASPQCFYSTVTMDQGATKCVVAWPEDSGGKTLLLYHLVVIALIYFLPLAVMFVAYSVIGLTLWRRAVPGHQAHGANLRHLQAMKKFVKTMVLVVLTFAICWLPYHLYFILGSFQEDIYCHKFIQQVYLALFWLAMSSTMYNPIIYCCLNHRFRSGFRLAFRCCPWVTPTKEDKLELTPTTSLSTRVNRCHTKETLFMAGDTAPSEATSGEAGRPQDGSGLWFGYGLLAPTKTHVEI
Put plainly: NK-2 receptor inhibition. Type of data set: binding.

The next data set has as its target T2, NK-3 receptor (Homo sapiens, UniProt P29371).
T2 sequence (P29371 1-465): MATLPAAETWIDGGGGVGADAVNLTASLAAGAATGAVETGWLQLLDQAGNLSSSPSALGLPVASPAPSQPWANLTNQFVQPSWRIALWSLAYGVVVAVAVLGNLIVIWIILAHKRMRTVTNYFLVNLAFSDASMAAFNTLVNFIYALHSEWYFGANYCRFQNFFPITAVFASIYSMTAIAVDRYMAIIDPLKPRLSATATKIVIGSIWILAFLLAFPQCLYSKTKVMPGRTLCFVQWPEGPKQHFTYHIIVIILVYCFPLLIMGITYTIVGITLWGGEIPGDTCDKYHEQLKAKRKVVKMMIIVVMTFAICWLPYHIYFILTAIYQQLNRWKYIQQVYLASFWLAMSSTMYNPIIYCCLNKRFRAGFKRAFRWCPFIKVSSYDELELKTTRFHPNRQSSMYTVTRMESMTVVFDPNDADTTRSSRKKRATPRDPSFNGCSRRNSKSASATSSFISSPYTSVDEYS
Put plainly: NK-3 receptor inhibition. Format: binding.

The subject of data set [1] is apomorphine-induced emesis. Kind of data set: Emetic challenge study (apomorphine-induced emesis) in beagle dogs. Type of data set: in vivo, beagle dog. The settings on record: for Total No. Emetic Episodes: apomorphine 0.1 mg/kg iv 2 hours later, five dogs, APO control 28. How it is done:
Over the five (5) weeks of the study, each animal receives each of the treatments, but only one per week. The purpose of this study is to determine if tradipitant suppresses apomorphine-induced emesis.
The mid dose of tradipitant is the approximate half-log interval between the low and high doses.
All animals are dosed over a period of five (5) weeks, with each dog receiving one of five different treatments on each day of dosing.
All dogs are fasted overnight prior to each treatment day and then fed approximately one (1) hour after oral dosing (approximately one (1) hour prior to administration of apomorphine). Individual doses are adjusted weekly for changes in body weight.
The dose regimen consists of a 5×5 Latin square design, in which each subject receives 1 dose or dose combination per week (6 day washout) as shown in Table 3 below.

The nature of data set [2]: Plasma concentration 2 hours post-dose in beagle dogs. Format: in vivo. Particulars: Dog 1-5. On the procedure:
All animals are dosed over a period of five (5) weeks, with each dog receiving one of five different treatments on each day of dosing. […] In cases where apomorphine is administered alone, without prior treatment with tradipitant or aprepitant, apomorphine is given at approximately the same time as when given in combination with tradipitant or aprepitant.

The target in a further data set is T3, NK-1 receptor (Cavia porcellus, UniProt P30547).
T3 construct: potency and CNS penetration of NK-1 antagonists in the guinea pig; from tissue; host or cells: brain of living Dunkin/Hartley guinea pigs
Put plainly: GR73632-induced vocalization in guinea pigs. Type of data set: in vivo. Particulars: guinea pig. How it is done: When introduced into the brain, the NK-1 receptor agonist substance P (SP) elicits distress vocalizations in the guinea pig that can be inhibited by NK-1 antagonists.
Male Dunkin/Hartley guinea pigs (200 to 250 grams) are orally administered either vehicle or an NK-1 antagonist. Approximately 45 minutes later (for dose response studies), the animals are anesthetized and 0.1 nmol of GR73632 (SP analog) in a vehicle volume of 5 μl is injected into the cerebral ventricle at the intersection of bregma and the midline of the skull. Animals are placed in a dark testing chamber located inside of a sound attenuation cubicle and vocalizations are recorded for 30 minutes following recovery from anesthesia. The time spent vocalizing is quantified for each animal. In the duration of action study, 0.1 mg/kg of tradipitant or vehicle solution is administered orally and then 2, 4, or 7 hours later, 0.1 nmol of GR73632 is administered into the cerebral ventricle as described above. Vocalizations are recorded and quantified as indicated above. Vehicle solutions are either CMC (FIG. 4 data) or an ethanol/emulphor solution (FIGS. 5 and 6). Data is analyzed using one-tailed t-tests.

For a further data set, the system named is brain NK-1 receptors. Put plainly: Occupancy of brain NK-1 receptors with tracer GR205171. Format: in vivo. The settings on record: p.o., tracer GR205171 iv. On the procedure:
A tracer NK-1 antagonist compound (GR205171) is used to evaluate the ability of other NK-1 antagonists to occupy the brain NK-1 receptors. In these studies, the test compounds are administered orally and the tracer compound is administered intravenously afterward. The occupancy of the NK-1 receptors is evaluated by quantitating the amount of the tracer compound bound to the brain NK-1 receptors after increasing doses of the test compounds.

The subject of data set [3] is small bowel transit and gastric emptying. Kind of data set: Clinical study of gastrointestinal motility (gamma scintigraphy). Format: in vivo, human. The settings on record: healthy subjects, 20 mg or 200 mg single oral dose; study underpowered for this parameter. How it is done:
A single-center, randomized, double-blind, placebo-controlled study is conducted to investigate the effect of tradipitant on small bowel transit time. A total of 15 healthy subjects, including 12 men and 3 women between the ages of 19 and 63 years, are enrolled in the study and receive at least 1 dose of study medication. A total of 13 subjects complete the study. Subjects are randomized to receive 20 mg of tradipitant, 200 mg of tradipitant, or placebo as a single oral dose within each of 3 periods, co-administered with a capsule radiolabeled with a maximum of 1MBq ^111In. Four hours post-dose, all subjects also receive a second capsule radiolabeled with a maximum of 4MBq ^99mTc. Each subject receives all 3 doses during the study. For all dosing regimens, in vivo gamma scintigraphic studies are performed at predetermined intervals, and the following scintigraphic parameters are analyzed: onset and completion of gastric emptying, onset and completion of colon arrival, initiation and completion of small bowel transit, and initial and complete disintegration of the capsule (anatomical location and time).

T3 sequence (P30547 whole entry): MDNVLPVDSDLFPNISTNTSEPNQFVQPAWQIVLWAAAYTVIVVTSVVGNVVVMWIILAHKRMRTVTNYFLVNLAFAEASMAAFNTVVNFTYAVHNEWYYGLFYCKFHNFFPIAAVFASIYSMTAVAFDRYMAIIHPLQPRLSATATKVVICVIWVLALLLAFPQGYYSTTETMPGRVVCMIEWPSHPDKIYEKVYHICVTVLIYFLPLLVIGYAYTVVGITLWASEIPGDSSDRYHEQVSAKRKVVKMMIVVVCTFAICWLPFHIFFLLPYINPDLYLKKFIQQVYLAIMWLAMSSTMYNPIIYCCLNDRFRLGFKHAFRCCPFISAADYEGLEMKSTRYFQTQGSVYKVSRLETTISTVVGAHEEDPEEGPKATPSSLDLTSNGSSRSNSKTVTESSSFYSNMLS

`O=C(c1ccccc1Cl)c1cccnc1-c1nnn(Cc2cc(C(F)(F)F)cc(C(F)(F)F)c2)c1-c1ccncc1` [Tradipitant, {2-[1-(3,5-bistrifluoromethylbenzyl)-5-pyridin-4-yl-1H-[1,2,3]triazol-4-yl]-pyridin-3-yl}-(2-chlorophenyl)-methanone]: the “inhibition at NK-2 receptor” value on NK-2 receptor is listed as “no significant inhibition”. In addition, at NK-3 receptor, the “inhibition at NK-3 receptor” value is “no significant inhibition”. Moreover, the “Total No. Emetic Episodes” value in data set [1] (0.3 mg/kg oral), in data set [1] (1.0 mg/kg oral) and in data set [1] (3.0 mg/kg oral) was 1** in each case. The “effect against apomorphine-induced emesis” value in data set [1] (each dose tested (0.3, 1.0, and 3.0 mg/kg)) is “effective”. For the same compound, the “Concentration of tradipitant in plasma, individual dogs” value in data set [2] (0.3 mg/kg oral) is 90.93 ng/mL and 83.38 ng/mL and 22.59 ng/mL and 51.20 ng/mL and 41.33 ng/mL; in data set [2] (1.0 mg/kg oral), 240.84 ng/mL and 100.97 ng/mL and 61.56 ng/mL and 175.58 ng/mL and 86.49 ng/mL; in data set [2] (3.0 mg/kg oral) it was 316.20 ng/mL and 682.91 ng/mL and 119.79 ng/mL and 122.73 ng/mL and 256.58 ng/mL. Also, the “suppression of agonist-induced vocalization” value on NK-1 receptor (0.1 mg/kg oral, 7 hours after administration) is reported as “significantly active”. For the same compound, on NK-1 receptor (administered orally), the duration of activity entry is recorded as “exceeds 7 hours”. For the same compound, at NK-1 receptor (at and below 0.1 mg/kg oral), the “inhibitory activity on vocalization” value is recorded as “retains significant inhibitory activity”. For the same compound, the “inhibition of agonist-induced vocalization” value at NK-1 receptor (oral, 10, 1.0, 0.1 and 0.05 mg/kg (each p<0.001)) is recorded as “significant inhibition”. Moreover, the “minimum effective dose (MED), inhibition of vocalization” value at NK-1 receptor (oral, p<0.001 compared to controls) was 0.025 mg/kg. In addition, the “ED50, occupancy of brain NK-1 receptors” value in the data set with brain NK-1 receptors was 0.04 mg/kg. In addition, in data set [3], the “effect on gastric emptying” value is given as “No effect”.
